Test results taken from PubChem BioAssay (NCI).
Where a name gives a salt, the structure may show the parent alone.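 Method: 48-hour compound exposure of cells in 96-well plates, five concentrations, linear interpolation of endpoints. Definition used: TGI = concentration required for complete inhibition of growth.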 Where a SMILES comes first, the peptide text is derived from it. The star is where a group is joined. Tfa = O=C(C(F)(F)F)*

Experiments:
Assay in all cases: growth of human tumour cells (NCI), 48 h
SF-268 CNS = test system: SF-268 CNS
PC-3 prostate = test system: PC-3 prostate
SR leukemia = test system: SR leukemia
COLO 205 colon = test system: COLO 205 colon
K-562 leukemia = test system: K-562 leukemia
HOP-62 NSCLC = test system: HOP-62 NSCLC
MALME-3M melanoma = test system: MALME-3M melanoma
OVCAR-8 ovarian = test system: OVCAR-8 ovarian
HCC-2998 colon = test system: HCC-2998 colon
KM12 colon = test system: KM12 colon
MCF7 breast = test system: MCF7 breast
OVCAR-5 ovarian = test system: OVCAR-5 ovarian
HCT-116 colon = test system: HCT-116 colon
MDA-N = test system: MDA-N
ACHN renal = test system: ACHN renal
SK-MEL-2 melanoma = test system: SK-MEL-2 melanoma
NCI-H460 lung = test system: NCI-H460 lung
UACC-257 melanoma = test system: UACC-257 melanoma
HCT-15 colon = test system: HCT-15 colon
SW-620 colon = test system: SW-620 colon

Row | Structure (SMILES) | TGI (SF-268 CNS) [µM] | TGI (PC-3 prostate) [µM] | TGI (SR leukemia) [µM] | TGI (COLO 205 colon) [µM] | TGI (K-562 leukemia) [µM] | TGI (HOP-62 NSCLC) [µM] | TGI (MALME-3M melanoma) [µM] | TGI (OVCAR-8 ovarian) [µM] | TGI (HCC-2998 colon) [µM] | TGI (KM12 colon) [µM] | TGI (MCF7 breast) [µM] | TGI (OVCAR-5 ovarian) [µM] | TGI (HCT-116 colon) [µM] | TGI (MDA-N) [µM] | TGI (ACHN renal) [µM] | TGI (SK-MEL-2 melanoma) [µM] | TGI (NCI-H460 lung) [µM] | TGI (UACC-257 melanoma) [µM] | TGI (HCT-15 colon) [µM] | TGI (SW-620 colon) [µM]
1 | O=C1c2c(Cl)c(Cl)c(Cl)c(Cl)c2C(=O)N1CCN(c1c(Cl)ssc1=O)c1c(Cl)ssc1=O | > 100 | 56.8 | 44.7 | 35 | 53.4 | > 100 | 53.6 | 44.6 | 58.8 | > 100 | 44.8 | > 100 | 29.9 | 33.3 | 32.9 | 54.3 | > 100 | 31.5 | 41.1 | 61.9
2 | CCCCCCCC1C(C)c2c([nH]c3ccccc23)C2C(=O)N(c3ccc(OC)cc3)C(=O)C21 (stereo not drawn) | > 10 | > 10 | > 10 | > 10 | > 6.39 | > 7.78 | > 10 | 6.02 | > 10 | > 10 | > 10 | > 10 | 3.61 | > 10 | 5.74 | > 10 | 3.62 | 7.65 | > 10 | > 8.94
3 | COc1ccc(/C=C2\CCCC(CN(C)C)C2=O)cc1 (stereo not drawn) | 11 | 18.4 | 2.42 | 4.45 | 6.79 | 35.7 | 6.95 | 26.4 | 16.6 | 2.75 | 1.45 | 23.2 | 3.19 | 8.5 | 5.86 | 11 | 48.4 | 8.96 | 1.7 | 2.39
4 | CC(=O)Nc1ccc(Nc2cc(=O)[nH]c(=O)[nH]2)cc1 | > 100 | > 100 | > 100 | > 100 | > 100 | > 100 | > 100 | > 100 | > 100 | > 100 | > 100 | > 100 | > 100 | > 100 | > 100 |  | > 100 | > 100 | > 100 | > 100
5 | Cc1c2c(c(C)n1-c1ccccc1)C(=O)N(CCCCN1CCN(c3ccccc3)CC1)C2=O | > 100 | 39.5 | 27 | 21.7 | 37.6 | 36.1 | 20.9 | 31.4 | 27.1 | > 100 | 35.8 | > 100 | 20.9 | 31.2 | > 100 | 62.6 | 47.4 | 22.2 | 54.8 | > 100
6 | CCC(C#N)(c1ccccc1)N(CCc1ccccc1)C(=O)c1ccccc1 (stereo not drawn) | > 100 | > 100 | > 100 | > 100 | > 100 | 50.8 | > 100 | 54.2 | > 100 | > 100 | > 100 | > 100 | > 100 | > 100 | > 100 | > 100 |  | > 100 | > 100 | > 100
7 | O=P1(O)C=CC2(CCCC2)O1 | > 100 | > 100 | > 100 | > 100 | > 100 | > 100 | > 100 | > 100 | > 100 | > 100 | > 100 | > 100 | > 100 | > 100 | > 100 | > 100 | > 100 | > 100 | > 100 | > 100
8 | Cc1cccc(C(C)C)c1NC(=O)C(=O)CC(=O)c1sc(Nc2ccccc2Cl)nc1C | > 100 | > 100 | > 100 | > 100 |  | > 100 | > 100 |  | 32.7 | > 100 | > 100 | > 100 | > 100 | 54.6 | > 100 | > 100 | 51.1 | > 100 | > 100 | > 100
9 | O=C(O)CC(NC(=O)C(F)(F)F)C(=O)NC(Cc1ccc(O)cc1)C(=O)O (stereo not drawn) (Tfa-Asp-Tyr-OH; configuration not given here) | > 50 | > 50 | > 50 | > 50 | > 50 | > 50 | > 50 | > 50 | > 50 | > 50 | > 50 | > 50 |  | > 50 | > 50 | > 50 | > 50 | > 50 | > 50 | > 50
10 | CN(C)c1ccc(/C=c2/c3ccccc3n3c2c2ccccc2[n+]3C)cc1 | 1.98 | 1.54 | 1.98 | 0.488 | 4.71 | 16.2 | 1.47 | 2.34 | 3.33 | 10.7 | 5.46 | 7.43 | 2.74 | 1.89 | 2.88 | 0.782 | > 38.2 | 1.51 | 2.41 | 1.61
11 | CC1CC(C)C(O)C(C2CC(CC(=O)NC3CCCCC3)CC(=O)O2)C1 (stereo not drawn) | > 100 | > 100 | > 100 | > 100 | > 100 | > 100 | > 100 | > 100 | > 100 | > 100 | > 100 | > 100 | > 100 | > 100 | > 100 |  | > 100 | > 100 | > 100 | > 100
12 | CCC1=NC(N/N=C/c2ccco2)=N/C1=C\c1ccccc1O | > 100 | > 100 | > 100 | > 100 | > 100 | > 100 | 98.9 | > 100 | 89.8 | > 100 | > 100 | > 100 | 56.8 | > 100 | > 100 | 89.4 | 73.6 | > 100 | 42.7 | > 100
13 | CC(=O)[C@@H]1[C@@H](OC(=O)CCC(C)COC2OC(CO)C(O)C(O)C2O)C[C@H]2[C@@H]3CC=C4C[C@@H](OC5OC(CO)C(OC6OC(C)C(O)C(O)C6O)C(O)C5OC5OC(C)C(O)C(O)C5O)CC[C@]4(C)[C@H]3CC[C@]12C (stereo partly drawn) | > 100 | > 100 | > 100 | > 100 | > 100 | > 100 | > 100 | > 100 | > 100 | > 100 | > 100 | > 100 | > 100 | > 100 | > 100 | > 100 | > 100 | > 100 |  | > 100
14 | C/C=C/[C@H]1O[C@@](O)([C@@H](C)[C@H](O)[C@H](C)[C@H]2OC(=O)/C(OC)=C/C(C)=C/[C@@H](C)[C@@H](O)[C@@H](CC)[C@@H](O)[C@H](C)C/C(C)=C/C=C/[C@@H]2OC)C[C@H](OC2CC(O)C(O)C(C)O2)[C@@H]1C (stereo partly drawn) | 25.6 | 9.48 | 0.75 | 3.96 |  | 2.7 | 0.907 | 12 | 11.8 | 12 | 8.58 | 15.1 | 4.15 | 12.2 | 12.8 |  | 4.81 | < 0.0075 | 8.8 | 10.4
15 | COc1cc(Cc2cc3c(c(C(=O)O)c2Br)OCO3)cc(OC)c1OC |  | > 100 | 89 | > 100 | > 100 | > 100 | > 100 | > 100 | > 100 | > 100 | > 100 | > 100 | > 100 | 67 | > 100 | > 100 | > 100 | > 100 | > 100 | > 100
16 | Cc1cc(N(CCC#N)CCC#N)ccc1/C(N=Nc1ccc(Cl)cc1)=N\NC(=O)c1cc(Cl)ccc1O | 86.2 | > 100 | > 100 | > 100 | > 100 | 56.6 | > 100 | > 100 | > 100 | > 100 | > 100 | > 100 | > 100 | > 100 | > 100 | > 100 | > 100 | > 100 | > 100 | 
17 | CCOC(=O)c1c2c3c(cccc3[nH]c1=O)Sc1ncccc1-2 | > 100 | 74.6 | > 100 | > 100 | > 100 | > 100 | > 100 | > 100 | > 100 |  | > 100 | 96.6 | > 100 | > 100 | > 100 | > 100 | > 100 | > 100 | > 100 | > 100
